Laboratory results as given in patent publication US20250347696A1, “SELF-ACTIVATING FÖRSTER RESONANCE ENERGY TRANSFER (saFRET) BIOSENSORS AND METHODS FOR MAKING AND USING THEM” (The Regents of the University of California, priority 2021, published 2025).
Where a chain is given by its changes, count along the chain named. Entries after “also recorded” stand apart in the source; their conditions may differ. Read-outs that look alike come from different tables or passages of the source.

Assays:
[1] = test system: phosphorylated LAT (Y191); assay: pLAT (Y191) immunostaining in Jurkat T cells after anti-CD3/CD28 stimulation; type: cell-based, human; details: inhibitor pre-treatment 30 minutes, anti-CD3/CD28 5 minutes
Procedure: (§1) We tested the phosphorylation of LAT, a downstream substrate of ZAP70 kinase, and the activation of T cells with the top two identified inhibitors, staurosporine and AZD7762.
(§2) • a, Experimental scheme and timeline for experiments in b-d. The Jurkat T cells were pre-treated with inhibitors for 30 minutes before anti-TCR stimulation by anti-CD3/CD28 antibodies for 5 minutes. • b, Immunostaining images of pLAT (Y191) in Jurkat T cells with different inhibitor pre-treatments. Scale bars, 10 μm. • c, Quantification of pLAT (Y191) intensity of single cells in different groups. (n>150 for each group, One-way ANOVA, ****P<0.0001). Error bars, mean±SD. • d, Quantification of pZAP70 (Y493) intensity of single cells in different groups. (n>200 for each group, One-way ANOVA, ****P<0.0001). […] P116 cells with similar ZAP70-WT or ZAP70-R360P expressions were sorted and isolated for further analysis based on YPet intensity. • h, CD69 expression in P116 cells with or without the expression of ZAP70 (WT) and its mutant (R360P). • i, Quantification of pZAP70 (Y493) intensity of single cells in different P116 groups. […] Scale bars, 10 μm. • k, Quantification of pLAT (Y191) intensity of single cells in P116-ZAP70 R360P cells with different inhibitor pre-treatment. […]

[2] = molecular target: T1, ZAP70 kinase (Homo sapiens, UniProt P43403); details: for inhibition of ZAP70 activity (FRET ratio change compared to solvent control): 10 μM, 40 minutes of incubation
T1 sequence (P43403 327-619): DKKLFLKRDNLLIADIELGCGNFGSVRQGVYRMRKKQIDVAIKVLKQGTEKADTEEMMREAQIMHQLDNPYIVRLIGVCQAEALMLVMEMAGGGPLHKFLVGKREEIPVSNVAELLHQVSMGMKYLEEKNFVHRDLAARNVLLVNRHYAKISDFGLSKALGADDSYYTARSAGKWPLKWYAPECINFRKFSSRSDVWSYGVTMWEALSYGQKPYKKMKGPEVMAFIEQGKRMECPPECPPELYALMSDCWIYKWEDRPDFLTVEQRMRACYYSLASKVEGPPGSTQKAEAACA
Procedure: (§3) We first screened a 96-member kinase inhibitor library to identify efficient inhibitors of ZAP70 kinase. […] After 40 minutes of incubation with inhibitors, the cells were imaged, and the FRET ratio changes of individual inhibitors compared to the solvent control were calculated to identify promising candidates after this primary endpoint screening (FIG. 5B-D). We further exploited a control biosensor with a kinase-dead domain (saFRETkd) for counter screening to eliminate false-positive hits due to auto-fluorescence or other non-specific effects^48.
• a, Schematics of the high throughput drug screening platform. First, the cells cultured in 96-well glass bottom plate were treated either with DMSO or inhibitors from the kinase inhibitor library. After 40 minutes of incubation, the cells were imaged, and the FRET ratio change compared to the control cell was calculated. […] Scale bars, 10 μm. • c, Summary of screening results. […] Error bars, mean±SD. • e, Counter screening using a mutant biosensor with a kinase-dead domain to subtract the noise engendered from non-specific fluorescence. […] Error bars, mean±SEM.
(§4) Firstly, we transfected HEK293 cells with optimized saFRET biosensor and established a stable cell line. […] HEK293 stable cell line was then cultured in 96 glass bottom wells for approximately 24 hours and then should be ready for high throughput screening (see FIG. 5A, Example 1). We tested this concept by screening an in house kinase inhibitor library (Cayman chemical inc.) and screened a […] kinase inhibitor library to identify efficient inhibitors of ZAP70 kinase. […] After 40 minutes of incubation with inhibitors, the cells were imaged, and the FRET ratio changes of individual inhibitors compared to the solvent control were calculated to identify promising candidates after this primary endpoint screening (see FIG. 5B-G, Example 1). We further exploited a control biosensor with a mutated-kinase dead domain (saFRETkd) for counter screening to eliminate false-positive hits due to auto-fluorescence or other non-specific effects (Simeonov and Davis 2004).

[3] = test system: pLAT (Y191); assay: pLAT (Y191) in P116-ZAP70 R360P cells; type: cell-based, human; details: inhibitor pre-treatment
Source text: (§5) To examine the efficacy of staurosporine and AZD7762 in inhibiting pathological T cell activation, we used a disease model where T cell activation is mediated by ZAP70-R360P mutation, a main cause of a severe human autoimmune syndrome^4. We introduced wild type ZAP70 or the R360P-mutant of ZAP70 into ZAP70-deficient P116 T cells (FIG. 6G). ZAP70-R360P led to enhanced T cell auto-activation compared to wild type ZAP70 (FIG. 6H).
as §2, with “(n>150 for each group, One-way ANOVA, ****P<0.0001).” left out, “groups.” for “groups. (n>200 for each group, One-way ANOVA, ****P<0.0001).”

[4] = test system: CD69 expression; assay: CD69 expression by flow cytometry in T cells after anti-TCR stimulation; type: cell-based, human; details: inhibitor pre-treatment
Procedure: as §1, §2

[5] = test system: CD69 expression; assay: CD69 expression by flow cytometry in P116-ZAP70-R360P cells; type: cell-based, human; details: inhibitor pre-treatment
Source text: as §5
as §2, with “(n>150 for each group, One-way ANOVA, ****P<0.0001).” left out, “groups.” for “groups. (n>200 for each group, One-way ANOVA, ****P<0.0001).”

[6] = test system: pZAP70 (Y493); assay: pZAP70 (Y493) immunostaining in Jurkat T cells after anti-CD3/CD28 stimulation; type: cell-based, human; details: inhibitor pre-treatment 30 minutes, anti-CD3/CD28 5 minutes
Procedure: as §1, §2

[7] = test system: pZAP70 (Y493); assay: pZAP70 (Y493) in P116-ZAP70 R360P cells; type: cell-based, human; details: inhibitor pre-treatment
Source text: as §5
as §2, with “(n>150 for each group, One-way ANOVA, ****P<0.0001).” left out, “groups.” for “groups. (n>200 for each group, One-way ANOVA, ****P<0.0001).”

[8] = molecular target: T2, ZAP70 biosensor with kinase-dead domain (saFRETkd) (Homo sapiens, UniProt P43403, K369A); assay: ZAP70 saFRET biosensor with kinase-dead domain (saFRETkd), control / counter screening; type: cell-based; details: for TAK-659-induced FRET response of ZAP70 saFRET biosensor with kinase-dead domain: kinase-dead (K369A) domain, HEK cells
T2 construct: kinase 327-619 (both KA and KM) was chosen for generating the Zap70 biosensor substrate libraries; expressed in transfected cells; host or cells: HEK cells
T2 sequence (P43403 327-619 K369A): T1 sequence (P43403 327-619) with K43A
Procedure: as §3, §4

[9] = molecular target: T3, ZAP70 kinase domain (327-619) (Homo sapiens, UniProt P43403); assay: ZAP70 saFRET biosensor live-cell FRET imaging in HEK cells; type: cell-based; details: TAK-659 25 μM
T3 construct: The combination of ZAP70 kinase domain (327-619) and a substrate from LATY191; expressed in transfected cells; host or cells: HEK cells
T3 sequence (P43403 327-619): T1 sequence (P43403 327-619)
Source text: To extend FRET-seq as a general platform to optimize different kinase FRET biosensors in mammalian cells, we further applied this technology to improve the ZAP70 kinase FRET biosensor. […] Similar to the Fyn saFRET biosensor, the FRET change of ZAP70 saFRET biosensor was dominated by the active kinase domain, as evidenced by the observations that the TAK-659-induced dynamic changes (FIG. 3 b,c) and phosphorylation (Supplementary FIG. 5a, or FIG. 11A) were abolished when the kinase domain was replaced by its kinase-dead version (K369A)^41.
Using the established platform for library screening and sequencing, the ZAP70 biosensor candidates selected via the four-dimensional plot were further ranked by the product of Ev (KAH) and Ev (KDL) (FIG. 3D-E). […] The dynamic range of FRET ratio of the biosensors containing […] (SEQ ID NO:113) or […] (SEQ ID NO:114) increased approximately 50% comparing to the parental one, when transiently expressed in HEK cells (FIG. 3G-H). As such, our FRET-seq platform can serve as a general high-throughput approach to engineer FRET biosensor from libraries and develop sensitive kinase biosensors. […]
To increase the specificity of the selected substrates, library with mutated kinase were included. […] The variants which satisfied all conditions were selected (FIG. 3D, Example 1), and their FRET ratio change upon TAK-659 treatment were measured by fluorescence microscope. […]

NC(=O)Nc1cc(-c2cccc(F)c2)sc1C(=O)N[C@H]1CCCNC1 [AZD7762]
phosphorylated LAT (Y191) [1]: Significant reductions | inhibition of ZAP70 activity (FRET ratio change compared to solvent control) [2]: effectively inhibit | phosphorylation of LAT (Y191) [3]: significantly inhibited | expression of CD69 [4]: suppressed | activation of T cells marked by CD69 [5]: significantly inhibited | phosphorylated ZAP70 (Y493) [6]: Significant reductions | phosphorylation of ZAP70 [7]: significantly inhibited

Cc1[nH]c(/C=C2\C(=O)Nc3ccc(S(=O)(=O)Cc4c(Cl)cccc4Cl)cc32)c(C)c1C(=O)N1CCC[C@@H]1CN1CCCC1 [PHA665752]
FRET ratio change with saFRETkd in counter screening ([8]; 10 μM library inhibitors, kinase-dead biosensor): nonspecific reduction of FRET ratio

CC(C)(C)n1nc(-c2ccc(Cl)cc2)c2c(N)ncnc21 [PP2]
FRET ratio response of ZAP70 saFRET biosensor (active kinase domain) to inhibitor [9]: not

CN[C@@H]1C[C@H]2O[C@@](C)([C@@H]1OC)n1c3ccccc3c3c4c(c5c6ccccc6n2c5c31)C(=O)NC4 [Staurosporine]
phosphorylated LAT (Y191) [1]: Significant reductions | inhibition of ZAP70 activity (FRET ratio change compared to solvent control) [2]: effectively inhibit | phosphorylation of LAT (Y191) [3]: significantly inhibited | expression of CD69 [4]: suppressed | activation of T cells marked by CD69 [5]: significantly inhibited | phosphorylated ZAP70 (Y493) [6]: Significant reductions | phosphorylation of ZAP70 [7]: significantly inhibited

Cn1cc(-c2nc(N[C@@H]3CCCC[C@@H]3N)c(F)c3c2C(=O)NC3)cn1 [TAK-659]
inhibition of ZAP70 activity (FRET ratio change compared to solvent control) ([2]; listed as TAK659): could not reduce the FRET ratio significantly | average FRET ratio reduction ([2]; 25 μM, stable HEK cell line, ZAP70 saFRET biosensor): approximately 25% | FRET ratio response of ZAP70 saFRET biosensor (active kinase domain) to inhibitor [9]: specifically responded; also recorded: significant FRET ratio change | TAK-659-induced FRET response of ZAP70 saFRET biosensor with kinase-dead domain [8]: abolished; also recorded: did not show any response | TAK-659-induced FRET response of ZAP70 saFRET biosensor with kinase-dead domain ([8]; listed as TAK659): no response

COc1ccc2cc(-c3nc(-c4ccc([S+](C)[O-])cc4)[nH]c3-c3ccncc3)ccc2c1 (stereo not shown) [Tie2 kinase inhibitor]
inhibition of ZAP70 activity (FRET ratio change compared to solvent control) [2]: effectively inhibit
